According to the supplement of paper PMC11061612:

What was measured:
Carboplatin = compound: C1CC(C1)(C(=O)[O-])C(=O)[O-].N.N.[Pt+2] [Carboplatin]; details: max 10 µM
Outline: (§1)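 Cancer cell lines in 1536-well plates (7.5 μl DMEM/F12 or RPMI, 10% FBS) were held 24 hours at 37°C and 5% CO2 and then dosed for 72 hours at a final DMSO of typically 0.2%. Viability was taken from CellTiter-Glo 2.0 luminescence, scaled between blank-well and DMSO-well means. Curves were fitted as two-parameter logistic models with a non-linear mixed effects model, from which the single-agent IC50 was taken.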

AZD5363 = compound: C1CN(CCC1(C(=O)N[C@@H](CCO)C2=CC=C(C=C2)Cl)N)C3=NC=NC4=C3C=CN4 [AZD5363]; details: max 10 µM
Outline: as §1

AZD1775 = compound: C=CCn1c(=O)c2cnc(Nc3ccc(N4CCN(C)CC4)cc3)nc2n1-c1cccc(C(C)(C)O)n1 [AZD1775]; details: max 3 µM
Outline: as §1

Trametinib = compound: CC(=O)Nc1cccc(-n2c(=O)n(C3CC3)c(=O)c3c(Nc4ccc(I)cc4F)n(C)c(=O)c(C)c32)c1 [Trametinib]; details: max 1 µM
Outline: as §1

Paclitaxel = compound: CC(=O)O[C@H]1C(=O)[C@@]2(C)[C@H]([C@H](OC(=O)c3ccccc3)[C@]3(O)C[C@H](OC(=O)[C@H](O)[C@@H](NC(=O)c4ccccc4)c4ccccc4)C(C)=C1C3(C)C)[C@]1(OC(C)=O)CO[C@@H]1C[C@@H]2O [Paclitaxel]; details: max 3 µM
Outline: as §1

Palbociclib = compound: CC(=O)c1c(C)c2cnc(Nc3ccc(N4CCNCC4)cn3)nc2n(C2CCCC2)c1=O [Palbociclib]; details: max 10 µM
Outline: as §1

AZD1390 = compound: CC(C)n1c(=O)n(C)c2cnc3cc(F)c(-c4ccc(OCCCN5CCCCC5)nc4)cc3c21 [AZD1390]; details: max 0.3 µM
Outline: as §1

Venetoclax = compound: CC1(C)CCC(CN2CCN(c3ccc(C(=O)NS(=O)(=O)c4ccc(NCC5CCOCC5)c([N+](=O)[O-])c4)c(Oc4cnc5[nH]ccc5c4)c3)CC2)=C(c2ccc(Cl)cc2)C1 [Venetoclax]; details: max 1 µM
Outline: as §1

Dasatinib = compound: CC1=C(C(=CC=C1)Cl)NC(=O)C2=CN=C(S2)NC3=CC(=NC(=N3)C)N4CCN(CC4)CCO [Dasatinib]; details: max 2 µM
Outline: as §1

SG3199 = compound: CC1=CN2[C@@H](C1)C=NC3=CC(=C(C=C3C2=O)OC)OCCCCCOC4=C(C=C5C(=C4)N=C[C@@H]6CC(=CN6C5=O)C)OC [SG3199]; details: max 0.001 µM
Outline: as §1

AZD2811 = compound: CCN(CCO)CCCOc1ccc2c(Nc3cc(CC(=O)Nc4cccc(F)c4)[nH]n3)ncnc2c1 [AZD2811]; details: max 1 µM
Outline: as §1

SN-38 = compound: CCc1c2c(nc3ccc(O)cc13)-c1cc3c(c(=O)n1C2)COC(=O)[C@]3(O)CC [SN-38]; details: max 0.3 µM
Outline: as §1

AZD0156 = compound: CN(C)CCCOc1ccc(-c2ccc3ncc4c(c3c2)n(C2CCOCC2)c(=O)n4C)cn1 [AZD0156]; details: max 3 µM
Outline: as §1

AZD4320 = compound: CN(CC[C@H](CSC1=CC=CC=C1)NC2=C(C=C(C=C2)S(=O)(=O)NC(=O)C3=CC=C(C=C3)N4CCC(CC4)[C@H](C5=CC=CC=C5C6=CC=C(C=C6)Cl)O)S(=O)(=O)C(F)(F)F)CCO [AZD4320]; details: max 1 µM
Outline: as §1

Alisertib = compound: COc1cc(Nc2ncc3c(n2)-c2ccc(Cl)cc2C(c2c(F)cccc2OC)=NC3)ccc1C(=O)O [Alisertib]; details: max 10 µM
Outline: as §1

Etoposide = compound: COc1cc([C@@H]2c3cc4c(cc3[C@@H](O[C@@H]3O[C@@H]5CO[C@@H](C)O[C@H]5[C@H](O)[C@H]3O)[C@H]3COC(=O)[C@H]23)OCO4)cc(OC)c1O [Etoposide]; details: max 10 µM
Outline: as §1

Gefitinib = compound: COc1cc2ncnc(Nc3ccc(F)c(Cl)c3)c2cc1OCCCN1CCOCC1 [Gefitinib]; details: max 10 µM
Outline: as §1

Prexasertib = compound: COc1cccc(OCCCN)c1-c1cc(Nc2cnc(C#N)cn2)n[nH]1 [Prexasertib]; details: max 1 µM
Outline: as §1

Doxorubicin = compound: COc1cccc2c1C(=O)c1c(O)c3c(c(O)c1C2=O)C[C@@](O)(C(=O)CO)C[C@@H]3O[C@H]1C[C@H](N)[C@H](O)[C@H](C)O1 [Doxorubicin]; details: max 1 µM
Outline: as §1

AZD5153 = compound: COc1nnc2ccc(N3CCC(c4ccc(OCCN5CCN(C)C(=O)[C@H]5C)cc4)CC3)nn12 [AZD5153]; details: max 1 µM
Outline: as §1

Lapatinib = compound: CS(=O)(=O)CCNCc1ccc(-c2ccc3ncnc(Nc4ccc(OCc5cccc(F)c5)c(Cl)c4)c3c2)o1 [Lapatinib]; details: max 10 µM
Outline: as §1

AZD8186 = compound: C[C@@H](Nc1cc(F)cc(F)c1)c1cc(C(=O)N(C)C)cc2c(=O)cc(N3CCOCC3)oc12 [AZD8186]; details: max 10 µM
Outline: as §1

Crizotinib = compound: C[C@@H](Oc1cc(-c2cnn(C3CCNCC3)c2)cnc1N)c1c(Cl)ccc(F)c1Cl [Crizotinib]; details: max 10 µM
Outline: as §1

Savolitinib = compound: C[C@@H](c1ccc2nccn2c1)n1nnc2ncc(-c3cnn(C)c3)nc21 [Savolitinib]; details: max 1 µM
Outline: as §1

AZD6738 = compound: C[C@@H]1COCCN1C2=NC(=NC(=C2)C3(CC3)[S@](=N)(=O)C)C4=C5C=CNC5=NC=C4 [AZD6738]; details: max 10 µM
Outline: as §1

AZD5991 = compound: Cc1c2c(nn1C)CSCc1cc(n(C)n1)CSc1cc(c3ccccc3c1)OCCCc1c(C(=O)O)n(C)c3c-2c(Cl)ccc13 [AZD5991]; details: max 1 µM
Outline: as §1

AZD7648 = compound: Cc1cc2ncnn2cc1Nc1ncc2c(n1)n(C1CCOCC1)c(=O)n2C [AZD7648]; details: max 10 µM
Outline: as §1

Taselisib = compound: Cc1nc(-c2cn3c(n2)-c2ccc(-c4cnn(C(C)(C)C(N)=O)c4)cc2OCC3)n(C(C)C)n1 [Taselisib]; details: max 10 µM
Outline: as §1

Selumetinib = compound: Cn1cnc2c(F)c(Nc3ccc(Br)cc3Cl)c(C(=O)NOCCO)cc21 [Selumetinib]; details: max 10 µM
Outline: as §1

SRA737 = compound: N#Cc1cnc(Nc2cc(NC[C@H]3CNCCO3)c(C(F)(F)F)cn2)cn1 [SRA737]; details: max 10 µM
Outline: as §1

MK-2206 = compound: NC1(c2ccc(-c3nc4ccn5c(=O)[nH]nc5c4cc3-c3ccccc3)cc2)CCC1 [MK-2206]; details: max 10 µM
Outline: as §1

Gemcitabine = compound: Nc1ccn([C@@H]2O[C@H](CO)[C@@H](O)C2(F)F)c(=O)n1 [Gemcitabine]; details: max 0.3 µM
Outline: as §1

[1] = compound: O=C(Nc1ccc2[nH]nc(-c3ccncc3)c2c1)[C@@H]1CCN(CC(=O)N2CCN(c3ccc(-c4ncccn4)cc3)CC2)C1; details: max 5 µM
Outline: as §1

Olaparib = compound: O=C(c1cc(Cc2n[nH]c(=O)c3ccccc23)ccc1F)N1CCN(C(=O)C2CC2)CC1 [Olaparib]; details: max 10 µM
Outline: as §1

5-Fluorouracil = compound: O=c1[nH]cc(F)c(=O)[nH]1 [5-Fluorouracil]; details: max 20 µM
Outline: as §1

Cell Line	IC50, cell viability 72 h (Carboplatin)	IC50, cell viability 72 h (AZD5363)	IC50, cell viability 72 h (AZD1775)	IC50, cell viability 72 h (Trametinib)	IC50, cell viability 72 h (Paclitaxel)	IC50, cell viability 72 h (Palbociclib)	IC50, cell viability 72 h (AZD1390)	IC50, cell viability 72 h (Venetoclax)	IC50, cell viability 72 h (Dasatinib)	IC50, cell viability 72 h (SG3199)	IC50, cell viability 72 h (AZD2811)	IC50, cell viability 72 h (SN-38)	IC50, cell viability 72 h (AZD0156)	IC50, cell viability 72 h (AZD4320)	IC50, cell viability 72 h (Alisertib)	IC50, cell viability 72 h (Etoposide)	IC50, cell viability 72 h (Gefitinib)	IC50, cell viability 72 h (Prexasertib)	IC50, cell viability 72 h (Doxorubicin)	IC50, cell viability 72 h (AZD5153)	IC50, cell viability 72 h (Lapatinib)	IC50, cell viability 72 h (AZD8186)	IC50, cell viability 72 h (Crizotinib)	IC50, cell viability 72 h (Savolitinib)	IC50, cell viability 72 h (AZD6738)	IC50, cell viability 72 h (AZD5991)	IC50, cell viability 72 h (AZD7648)	IC50, cell viability 72 h (Taselisib)	IC50, cell viability 72 h (Selumetinib)	IC50, cell viability 72 h (SRA737)	IC50, cell viability 72 h (MK-2206)	IC50, cell viability 72 h (Gemcitabine)	IC50, cell viability 72 h [1]	IC50, cell viability 72 h (Olaparib)	IC50, cell viability 72 h (5-Fluorouracil)
NCI-H28 (Mesothelioma)	> 10 µM	> 10 µM	> 3 µM	> 1 µM	0.825 µM	> 10 µM	> 0.3 µM	> 1 µM	0.304 µM	> 0.001 µM	> 1 µM	> 0.3 µM	> 3 µM	> 1 µM	> 10 µM	> 10 µM	> 10 µM	0.327 µM	> 1 µM	> 1 µM	> 10 µM	> 10 µM	> 10 µM	> 1 µM	> 10 µM	> 1 µM	> 10 µM	> 10 µM	> 10 µM	> 10 µM	> 10 µM	0.14 µM	> 5 µM	> 10 µM	> 20 µM
NCI-H69 (Small Cell Lung Carcinoma)	> 10 µM	> 10 µM	2.37 µM	> 1 µM	0.00464 µM	> 10 µM	> 0.3 µM	> 1 µM	> 2 µM	> 0.001 µM	0.342 µM	0.123 µM	> 3 µM	0.0595 µM	1.11 µM	> 10 µM	> 10 µM	> 1 µM	> 1 µM	> 1 µM	> 10 µM	> 10 µM	5.7 µM	> 1 µM	> 10 µM	> 1 µM	> 10 µM	0.546 µM	> 10 µM	> 10 µM	4.55 µM	> 0.3 µM	> 5 µM	> 10 µM	> 20 µM
NCI-H2461 (Mesothelioma)	> 10 µM	> 10 µM	0.63 µM	> 1 µM	0.735 µM	> 10 µM	> 0.3 µM	> 1 µM	> 2 µM	> 0.001 µM	> 1 µM	0.0918 µM	> 3 µM	> 1 µM	> 10 µM	> 10 µM	> 10 µM	0.0482 µM	0.379 µM	> 1 µM	> 10 µM	> 10 µM	> 10 µM	> 1 µM	4.16 µM	> 1 µM	> 10 µM	6.27 µM	> 10 µM	> 10 µM	> 10 µM	> 0.3 µM	> 5 µM	> 10 µM	> 20 µM
NCI-H2795 (Mesothelioma)	> 10 µM	> 10 µM	> 3 µM	0.0384 µM	0.0853 µM	> 10 µM	> 0.3 µM	> 1 µM	0.578 µM	> 0.001 µM	> 1 µM	0.0169 µM	> 3 µM	> 1 µM	1.3 µM	3.82 µM	> 10 µM	0.146 µM	0.715 µM	0.84 µM	> 10 µM	> 10 µM	7.78 µM	> 1 µM	9.01 µM	0.974 µM	> 10 µM	4.73 µM	3.14 µM	> 10 µM	> 10 µM	0.0258 µM	0.658 µM	> 10 µM	19.6 µM
OC-314 (Ovarian Carcinoma)	> 10 µM	> 10 µM	0.671 µM	> 1 µM	0.0059 µM	> 10 µM	> 0.3 µM	> 1 µM	0.205 µM	> 0.001 µM	> 1 µM	0.00872 µM	> 3 µM	> 1 µM	6.23 µM	0.876 µM	> 10 µM	0.0394 µM	0.0639 µM	0.0709 µM	> 10 µM	7.39 µM	> 10 µM	> 1 µM	2.61 µM	> 1 µM	> 10 µM	1.6 µM	> 10 µM	> 10 µM	> 10 µM	0.0344 µM	> 5 µM	> 10 µM	17.8 µM
PCI-30 (Head and Neck Carcinoma)	> 10 µM	> 10 µM	> 3 µM	> 1 µM	> 3 µM	> 10 µM	> 0.3 µM	> 1 µM	> 2 µM	> 0.001 µM	> 1 µM	0.11 µM	> 3 µM	> 1 µM	> 10 µM	> 10 µM	> 10 µM	0.074 µM	> 1 µM	> 1 µM	> 10 µM	> 10 µM	> 10 µM	> 1 µM	> 10 µM	> 1 µM	> 10 µM	> 10 µM	> 10 µM	> 10 µM	> 10 µM	> 0.3 µM	> 5 µM	> 10 µM	> 20 µM
